Source: PMC3343204 (Clinical Cancer Research, 2012)

Key:
MPNST cells = assay: Colony formation assay; type: cell-based, human; conditions: for IC50: Homo sapiens, 24 h
CDK6 = conditions: cited from earlier work
[1] = human plasma; cited from earlier work
[2] = Flavopiridol plasma pharmacokinetics in phase I trial; type: in vivo, human
CDK9 = conditions: cited from earlier work
CDK2 = conditions: cited from earlier work
CDK4 = conditions: cited from earlier work
[3] = patients, cited from earlier work
[4] = tested on: dedifferentiated liposarcoma cell lines, with amplified CDK4; assay: Sensitivity of liposarcoma cell lines; type: cell-based, human; conditions: prior observations, data not shown

| Structure (SMILES) | IC50 (MPNST cells) [nM] | inhibition of CDK6 (CDK6) | protein binding in plasma [1] [%] | time point at which Cmax was observed ([2]; first time point analyzed in each schedule) [h] | Cmax ([2]; human, plasma, intravenous, Mean Cmax, cycle 1, cohort 8 (doxorubicin 60, flavopiridol 90 (50/40) mg/m^2), n 4) [µM] | inhibition of CDK9 (CDK9) | inhibition of CDK2 (CDK2) | inhibition of CDK4 (CDK4) | MTD, single agent bolus schedule ([3]; approximate) [mg/m^2] | MTD, single agent divided dose flavopiridol therapy ([3]; bolus followed by infusion) [mg/m^2] | sensitivity to flavopiridol [4] | colony formation (percentage of untreated controls) (MPNST cells; MPNST cells, flavopiridol alone 150 nM 24 hours, colonies after 10 days) [%] |
| --- | --- | --- | --- | --- | --- | --- | --- | --- | --- | --- | --- | --- |
| COc1cccc2c1C(=O)c1c(O)c3c(c(O)c1C2=O)C[C@@](O)(C(=O)CO)C[C@@H]3O[C@H]1C[C@H](N)[C@H](O)[C@H](C)O1 [doxorubicin] | 15 | – | – | – | – | – | – | – | – | – | – | – |
| CN1CC[C@H](c2c(O)cc(O)c3c(=O)cc(-c4ccccc4Cl)oc23)[C@H](O)C1 [flavopiridol] | 150 | nanomolar concentrations | 90 | 0.5 | 3.33 | nanomolar concentrations | nanomolar concentrations | nanomolar concentrations | ~70 | 90 | highly sensitive | 59 |
